This is an account of results in patent US9199939B2, “Quinoline amide M1 receptor positive allosteric modulators” (Merck Sharp & Dohme Corp., priority 2009, dated 2015).

For this assay, the target named is T1, acetylcholine muscarinic M1 receptor (Homo sapiens, UniProt P11229).
T1 construct: expressed in transfected cells; host or cells: CHOnfat (CHO cells; also called CHOK1/hM1)
T1 sequence (P11229 1-460): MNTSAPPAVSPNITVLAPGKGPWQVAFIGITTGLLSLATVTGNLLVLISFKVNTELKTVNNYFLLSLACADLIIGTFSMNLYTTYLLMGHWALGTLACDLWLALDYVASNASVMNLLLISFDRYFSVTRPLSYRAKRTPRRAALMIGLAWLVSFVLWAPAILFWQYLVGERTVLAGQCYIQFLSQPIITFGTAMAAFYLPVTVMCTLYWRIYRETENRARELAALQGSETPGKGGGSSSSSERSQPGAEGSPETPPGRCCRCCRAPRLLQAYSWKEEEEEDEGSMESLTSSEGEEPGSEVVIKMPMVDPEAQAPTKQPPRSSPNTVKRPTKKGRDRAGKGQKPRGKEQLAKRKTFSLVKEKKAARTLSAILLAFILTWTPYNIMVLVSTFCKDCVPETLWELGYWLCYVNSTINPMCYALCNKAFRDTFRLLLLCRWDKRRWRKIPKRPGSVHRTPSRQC
Description: Muscarinic M1 FLIPR intracellular calcium assay for positive allosteric modulators. The format is cell-based. The note with it: IP = inflection point calculated from FLIPR values; CHOnfat/hM1 cells; 4 min preincubation, then EC20 acetylcholine (3 nM final); read-out: IP Value. On the procedure: The assay studies the effect of one or several concentrations of test compounds on basal or acetylcholine-stimulated Ca^2+ levels using FLIPR.
Compounds are prepared and subjected to a preincubation period of 4 min. Thereafter, a single EC20 concentration of acetylcholine is added to each well (3 nM final). The intracellular Ca^2+ level of each sample is measured and compared to an acetylcholine control to determine any modulatory activity.
Cells: CHOnfat/hM1, hM2, hM3 or hM4 cells are plated 24 hr before the assay at a density of 18,000 cells/well (100 μL) in a 384 well plate. CHOnfat/hM1 and CHOnfat/hM3 Growth Medium: 90% DMEM (Hi Glucose); 10% HI FBS; 2 mM L-glutamine; 0.1 mM NEAA; Pen-Strep; and 1 mg/ml Geneticin, are added. For M2Gqi5CHOnfat and M4Gqi5CHOnfat cells, an additional 600 ug/ml hygromycin is added.
Equipment: 384 well plate, 120 μL addition plate; 96-well Whatman 2 ml Uniplate Incubator, 37° C., 5% CO2; Skatron EMBLA-384 Plate Washer; Multimek Pipetting System; Genesis Freedom 200 System; Mosquito System; Temo Nanolitre Pipetting System; and FLIPR^384 Fluorometric Imaging Plate Reader System are used.
Buffers. Assay Buffer: Hanks Balanced Salt Solution, with 20 mM Hepes, 2.5 mM Probenecid (Sigma P-8761) first dissolved in 1 N NaOH, 1% Bovine Serum Albumin (Sigma A-9647). Dye Loading Buffer: Assay Buffer plus 1% Fetal Bovine Serum and Fluo-4AM/Pluronic Acid Mixture. 2 mM Fluo-4AM ester stock in DMSO (Molecular Probes F-14202) Concentration of 2 μM in buffer for a final concentration of 1 μM in Assay. 20% Pluronic Acid Solution stock, with concentration of 0.04% in Buffer, 0.02% in Assay.
65 μL of 2 mM Fluo-4AM are mixed with 130 μL of 20% Pluronic Acid. The resulting solution and 650 μL FBS is added to the assay buffer for a total volume of 65 mL. Positive Controls: 4-Br-A23187: 10 mM in DMSO; final concentration 10 μM. Acetylcholine: 10 mM in water, working stock at both 20 μM and 30 μM in assay buffer, final concentration of 10 μM. This is used to check the maximum stimulation of the CHOK1/hM1 cells. 20 μM (2×) acetylcholine is added in the preincubation part of the assay, and the 30 μM (3×) stock is added in the second part. (EC20)Acetylcholine: 10 mM in water, working stock of 9 nM (3×), and final concentration in assay is 3 nM. This is used after the preincubation with test compounds. Addition of the EC20 Acetylcholine to each well with a test compound will ascertain any modulator activity. 24 wells contain 3 nM Acetylcholine alone as a control.
Determining Activity of Putative Compounds:
Screening Plate Compounds are titrated in 96-well plates (columns 2-11), 100% DMSO, started at a concentration of 15 mM (150× stock concentration), and 3-fold serial dilutions using Genesis Freedom200 System. Four 96-well plates are combined into a 384-well plate using Mosquito Nanolitre Pipetting System by transferring 1 μl of serial diluted compounds to each well, and 1 mM acetylcholine (100× stock concentration) were added as a control. Using Temo, 49 μl assay buffer is added to each well of the 384-well plate right before assay.
In a 96-well Whatman 2 ml Uniplate, 9 nM Acetylcholine (3×) is pipetted into wells corresponding to the screening compounds, and into control wells. The 30 μM acetylcholine control (3×) is added into control wells, and the 3× agonist plate is transferred into a 384 well plate.
Cells are washed three times with 100 μL of buffer, leaving 30 μL of buffer in each well. Using Multimek, 30 μL of Dye Loading Buffer is added into each well and incubated at 37° C., 5% CO2 for up to one hr.
After 60 min, the cells are washed three times with 100 μL of buffer, leaving 30 μL of buffer in each well. The cell plate, screening plate, and agonist addition plates are placed on the platform in the FLIPR and the door closed. A signal test to check background fluorescence and basal fluorescence signal is performed. Laser intensity is adjusted if necessary. […]
`O=C(N[C@H]1CCCC[C@@H]1O)c1cc(Cc2ccc(Cl)nc2)c2ccccc2[n+]1[O-]` [Example 3, 4-[(6-Chloropyridin-3-yl)methyl]-N-[(1S,2S)-2-hydroxycyclohexyl]quinoline-2-carboxamide 1-oxide]: the EC50 was 148 nM.
The figure for `Cn1cc(-c2ccc(Cc3cc(C(=O)N[C@H]4COCC[C@@H]4O)nc4ccccc34)cn2)cn1` [Example 10, N-[(3S,4S)-4-Hydroxytetrahydro-2H-pyran-3-yl]-4-{[6-(1-methyl-1H-pyrazol-4-yl)pyridin-3-yl]methyl}quinoline-2-carboxamide] is 17 nM.
On to `Cn1cc(-c2ccc(Cc3cc(C(=O)N[C@H]4CCCC[C@@H]4O)nc4ccccc34)cn2)cn1` [Example 5, N-[(1S,2S)-2-Hydroxycyclohexyl]-4-{[6-(1-methyl-1H-pyrazol-4-yl)pyridin-3-yl]methyl}quinoline-2-carboxamide], for which the EC50 was 6 nM.
